Experiments:
[1] = system: antigen induced Eosinophils accumulation into lungs; experiment: Effect on antigen induced eosinophils accumulation into lungs in actively sensitized guinea pigs; type: in vivo, male Dunkin-Hartley guinea pigs; details: 30 mg/kg p.o., BALF 24 h after antigen exposure
Experimental: Effect on antigen induced Eosinophils accumulation into lungs in actively sensitized guinea pigs
Male Dunkin-Hartley guinea pigs (4W, Japan SLC, Inc.) were used throughout this study.
Sensitized animals were orally administered (p.o.) with compound or solvent (0.5% hydroxymethylcellulose) 30 min. before final sensitization, 30 min. before antigen exposure and 4.5 h after antigen exposure.
Egg albumin (EA, 10 μg) was added to AI(OH)3 (10 mg) in sterile physiological saline (0.5 ml) and mixed in a blender. This mixture was injected intraperitoneally into recipients. And after 14 days and 21 days, the procedure was repeated. Seven days after the final sensitization procedure, Mepyramine 10 mg/kg was injected intraperitoneally into the sensitized animals. After 30 min., the animals were exposed to aerosol of 1% EA in sterile physiological saline for 5 min.
24 h after antigen exposure, the animals were killed by exsanguination and tracheae were cannulated. And the lungs were lavaged three times with 10 ml of sterile physiological saline. Lavage fluid (BALF) was centrifuged (800 rpm for 10 min. at 4° C.) and the cell pellet was resuspended in 10 ml of sterile physilolgical saline and total cell numbers in BALF were counted in a hemocytometer (MEK 4200, Nihon-kohden, Ltd.). Differential cell counts were made from centrifuged preparations stained with May-Giemsa stain.

TNBS-induced colitis = experiment: Effect on TNBS-induced colitis model in rats (oral administration); type: in vivo, SD rats; details: for Intestinal weight (mean ± S.D.) / MPO activity (mean ± S.D.): TNBS, 7 days
Experimental: Effect on trinitrobenzenesufonic acid (TNBS)-induced colitis model in rats
Colitis was induced by intrarectal injection of TNBS solution (60 mg/ml in 50% EtOH, 500 μl/rat) to SD rats. Seven days later, rats were sacrificed and large intestine (8 cm from anus) was cut off and weighed. Myeloperoxidase (MPO) activity in the intestinal tissue was measured as follows and taken as an indicator of leukocyte infiltration: the intestinal tissue was homogenized and a cycle of freeze-thawing of the tissue was repeated 3 times. The supernatant obtained by centrifugation was assayed for MPO activity with substrate for peroxidase (o-phenylenediamine). MPO activity in the supernatant was calculated with the commercial MPO as a standard. The increases in intestinal weight and MPO activity as described above were taken as indicators of colitis. Test compound was suspended in 0.5% hydroxypropylmethylcellulose solution and administered p.o. (0.1 ml/10 g body weight) for 5 days beginning on the day of TNBS injection.

For CNC(=O)C[C@@H]1N=C(c2ccc(Cl)cc2)c2c(sc(C)c2C)-n2c(C)nnc21 [Example 1, (S)-N-methyl-4-(4-chloro-phenyl)-2,3,9-trimethyl-6H-thieno[3,2-f][1,2,4]triazolo[4,3-a]-[1,4]diazepine-6-acetamide 1/4 hydrate], the Number of eosinophils [1] was 7.0 ± 1.4 × 10^6, the “Intestinal weight (mean ± S.D.)” value (TNBS-induced colitis; 0.3 mg/kg/day p.o.) was 1328.6 ± 1411.4 mg and the “MPO activity (mean ± S.D.)” value (TNBS-induced colitis; 0.3 mg/kg/day p.o.) was 1.389 ± 2.806 U/ml. For the same molecule, the “Intestinal weight (mean ± S.D.)” value (TNBS-induced colitis; 1 mg/kg/day p.o.) was 574.2 ± 93.1 mg, the “MPO activity (mean ± S.D.)” value (TNBS-induced colitis; 1 mg/kg/day p.o.) was 0.221 ± 0.020 U/ml and the “Effect on intestinal weight and leukocyte infiltration in colitis (in words)” value (TNBS-induced colitis; p.o., Tables 6A and 6B) was “significantly inhibit the increase in intestinal weight and the leukocyte infiltration caused by colitis in rats”.

— patent publication US5712274A, “Thienotriazolodiazepine compounds and their pharmaceutical use” (Yoshitomi Pharmaceutical Industries, Ltd., priority 1995, dated 1998)
